Laboratory results taken from patent US4031231A, “Antibacterial composition comprising 3-fluoro-D-alanine or deutero analog in combination with auto-antagonist inhibitor” (priority 1976, dated 1977).
Converted amounts (≈) assume the structure as drawn. Like-named read-outs stand apart in the source and are kept apart here.

Experiments:
[1] = Stability in aqueous solution; assay type: physicochemical
[2] = Release of cycloserine or methyl-cycloserine in vivo when administered clinically; settings: for effectiveness in releasing cycloserine or methyl-cycloserine in vivo: administered clinically, substantially avoiding dimerization
[3] = system: Escherichia coli (Strain 2017); assay: Growth inhibition (complete repression of growth) of Escherichia coli culture; assay type: cell-based; settings: for concentration of FDA-autoantagonist-inhibitor at which growth is completely repressed in combination with 3-fluoro-D-alanine / inhibitor-effective concentration as percentage of its own minimum effective antibacterial concentration: combined with 3-fluoro-D-alanine at 50 μg/ml
Description: When the 3-fluoro-D-alanine, at this concentration of 50 μg/ml, is combined with an FDA-autoantagonist-inhibitor, such as cycloserine at concentrations of only 0.39 μg/ml, terizidone at 0.8 μg/ml, D-4-(1'-methyl-3'-oxo-1'-butenyl)amino-3-isoxazolidinone or its sodium salt at 0.72 μg/ml, or D-cis-cyclothreonine at approximately 2 μg/ml, growth of the Escherichia coli is completely repressed.

[4] = system: Staphylococcus aureus 2949; assay: Protection of mice infected with Staphylococcus aureus 2949 (ED50); assay type: in vivo, Staphylococcus aureus 2949; female C.D.1 mice; settings: 30 LD50; subcutaneous at 0, 2, 4 hours; 50% protected for 7 days
Description: (§1) Female C.D.1 mice of average weight 21.0 g. are injected intraperitoneally with 0.5 ml. of an appropriate dilution of a 16-hour broth culture containing the indicated pathogen. (The severity of the infectious challenge is represented in each case as the multiple of the dilution of the broth culture which is lethal for only 50% of the untreated population, i.e. No. LD50.) Appropriate dosages of 3-fluoro-D-alanine(FDA) and D-cycloserine, individually, and combinations of these two components in a fixed ration of 1:1 are administered in 0.5 ml volume subcutaneously on the dorsal surface, promptly at the time of the injection, and at 2 hour and 4 hour intervals thereafter. The results of these tests, which are expressed as the ED50 dose, which is the statistically interpolated dose required to protect 50% of the infected population for a period of 7 days following challenge and treatment, are as follows: […]

[5] = system: Escherichia coli (Strain 2017); assay: Growth inhibition (complete repression of growth) of Escherichia coli culture; assay type: cell-based; settings: for MIC: Escherichia coli, read-out: minimum concentration for complete inhibition (repression) of growth
[6] = system: Serratia species 3374; assay: Protection of mice infected with Serratia species 3374 (ED50); assay type: in vivo, Serratia species 3374; female C.D.1 mice; settings: 3 LD50; subcutaneous at 0, 2, 4 hours; 50% protected for 7 days
Description: as §1

[7] = system: Escherichia coli 2017; assay: Survival of mice infected with Escherichia coli 2017; assay type: in vivo, Escherichia coli 2017; female C.D.1 mice; settings: for number of survivors in each group of five infected mice: subcutaneous, 3 LD50
Description: Groups of five female C.D.1 mice of average weight 21.0 g are injected intraperitoneally with 0.5 ml of a diluted broth culture of Escherichia coli 2017 representing 3 LD50 of bacterial pathogens. The indicated dosages of 3-fluoro-D-alanine (FDA) and D-cycloserine are then promptly administered in a 0.5 ml volume by the subcutaneous route on the dorsal surface.
Across the top row of the tabulation are listed the number of mice surviving (in each group of five infected mice) for the indicated doses (mg) of 3-fluoro-D-alanine alone; in the first vertical column are listed the number surviving for the indicated doses (mg) of cycloserine alone; and in the second vertical column are listed the number of mice surviving for combination doses of 5.0 mg of 3-fluoro-D-alanine and the indicated amount (mg) of cycloserine.

[8] = individual component alone, E. coli Strain 2017

| Compound | stability in aqueous solution [1] | effectiveness in releasing cycloserine or methyl-cycloserine in vivo [2] | concentration of FDA-autoantagonist-inhibitor at which growth is completely repressed in combination with 3-fluoro-D-alanine [3] | inhibitor-effective concentration as percentage of its own minimum effective antibacterial concentration [3] | ED50, individual components [4] [mg/dose] | MIC [5, 8] [µg/mL] | ED50, individual components [6] [mg/dose] | further results |
| --- | --- | --- | --- | --- | --- | --- | --- | --- |
| CC(=O)C(C)=C(C)N[C@@H]1CONC1=O [D-4-(1',2'-dimethyl-3'-oxo-1'-butenyl)amino-3-isoxazolidinone] | remarkably stable in aqueous solution | extremely effective |  |  |  |  |  |  |
| CC(=O)C=C(C)N[C@@H]1CONC1=O [D-4-(1'-methyl-3'-oxo-1'-butenyl)amino-3-isoxazolidinone] | remarkably stable in aqueous solution | extremely effective | 0.72 µg/mL |  |  |  |  | effectiveness in releasing cycloserine in the blood stream and in the bladder ([2]; blood stream, bladder): of particular effectiveness |
| C[C@@H]1ONC(=O)[C@@H]1N [D-cis-cyclothreonine] |  |  | approximately 2 μg/ml | less than 2% |  |  |  |  |
| N[C@H](CF)C(=O)O [FDA, 3-fluoro-D-alanine] |  |  |  |  | 0.801 | 3.12 (≈ 29.1 µM) | 1.7 | growth of the organism at higher concentration (autoantagonist action) ([5]; 3-fluoro-D-alanine alone at 50 μg/ml): extensive growth; MIC ([3]; Escherichia coli, read-out: concentration at which growth is completely repressed): 3.2 µg/mL (≈ 29.9 µM); survival ([7]; 1.25 mg dose of 3-fluoro-D-alanine alone): 80%; survival ([7]; 5.0 mg dose of 3-fluoro-D-alanine alone (autoantagonism)): 20%; number of survivors in each group of five infected mice ([7]; FDA alone 0.078 mg): 0 mice; number of survivors in each group of five infected mice ([7]; FDA alone 0.312 mg): 3 mice; number of survivors in each group of five infected mice ([7]; FDA alone 1.25 mg): 4 mice; number of survivors in each group of five infected mice ([7]; FDA alone 5.0 mg): 1 mice |
| N[C@@H]1CON=C1O [cycloserine, D-4-amino-3-isoxazolidinone, reference compound] |  |  | 0.39 µg/mL | less than 2% | 0.400 | 25 (≈ 245 µM) | 2.5 | minimum concentration for complete inhibition (repression) of growth [5, 8]: 25 µg/mL; suppression of the autoantagonism shown by 3-fluoro-D-alanine ([7]; 0.156 mg of cycloserine with 5.0 mg of 3-fluoro-D-alanine): completely suppresses the autoantagonism; number of survivors in each group of five infected mice ([7]; D-cycloserine alone 0.078 mg): 0 mice; number of survivors in each group of five infected mice ([7]; D-cycloserine alone 0.312 mg): 0 mice; number of survivors in each group of five infected mice ([7]; D-cycloserine alone 1.25 mg): 3 mice; number of survivors in each group of five infected mice ([7]; D-cycloserine alone 5.0 mg): 5 mice; protection ([7]; cycloserine alone, 0.156 mg): zero protection |
| O=C1NOCC1/N=C/c1ccc(/C=N/C2CONC2=O)cc1 (stereo not drawn) [terizidone] |  |  | 0.8 µg/mL | less than 2% |  |  |  |  |
